Structures are written as SMILES.

The target of one data set is T1, BuChE (equine serum) (Equus caballus, UniProt P81908).
T1 construct: 0.11 mM for BuChE (equine serum); from tissue; host or cells: equine serum
The data set can be described thus: BuChE inhibition, Ellman's assay. It counts as biochemical. Particulars: equine serum, pH 8.0; read-out: IC50 BuChE. The method, then: (§1) For both families of enzymes used herein (glycosidases and cholinesterases), stock solutions of the inhibitors were prepared in DMSO; DMSO content was kept at 5% (V/V) for glycosidases and 1.25% (V/V) for cholinesterases. Enzymes were properly dissolved in water in a concentration in which the rate of the reaction when using [S] = 4 × KM is in the range 0.12–0.15 Abs/min. In both kinds of enzymes, an initial screening at 100 µM inhibitor concentration was performed, using the following substrate concentrations: [S] = 0.25 mM for α-glucosidase (Saccharomyces cerevisiae), 4.0 mM for β-glucosidase (almonds), 0.60 mM for α-galactosidase (green coffee beans), 0.51 mM for β-galactosidase (Escherichia coli), 1.5 mM for β-galactosidase (Aspergillus Oryzae), 0.12 mM for AChE (Electrophorus electricus), 0.11 mM for BuChE (equine serum). […] Each assay was run in duplicate.
(§2) For cholinesterases, minor modifications on Ellman’s assay[31] were performed. The activity was measured in PS cuvettes containing […] (pH 8.0), 0.88 mM DTNB, and substrate (acetyl- and butyryl-thiocholine iodides for AChE and BuChE, respectively), The formation of the chromophore was monitored at 405 nm over a time of 125 s.
(§3) For strong inhibitors, the mode of inhibition was determined using the Cornish–Bowden method, which involves the use of two different plots: 1/v vs. [I] (Dixon plot) and [S]/v vs. [I]. For the calculation of kinetic parameters (KM, Vmax) a nonlinear regression analysis (least squares fit, GraphPad Prism 8.01) was used. Data are expressed as the mean ± SD.
(§4) Derivatives 11 and 12 were tested also against AChE (Electrophorus electricus) and BuChE (equine serum), as recognised models for human cholinesterases due to their close structural resemblance. For that purpose, Ellman’s colorimetric assay was used; this is an indirect test in which acetyl and butyryl thiocholine iodides are used as model substrates, which upon interaction with the enzyme release thiocholine, which in turn reacts with the chromogen reagent 5,5′-dithiobis(2-nitrobenzoic acid (DTNB) to give 2-nitro-5-mercaptobenzoate (at pH 8.0). The monitoring of the latter at 405 nm furnishes the kinetic parameters.

For data set [1], the target named is T2, β-galactosidase (Escherichia coli) (Escherichia coli, UniProt P00722).
T2 construct: purchased
T2 sequence (P00722 2-1024 limits assumed): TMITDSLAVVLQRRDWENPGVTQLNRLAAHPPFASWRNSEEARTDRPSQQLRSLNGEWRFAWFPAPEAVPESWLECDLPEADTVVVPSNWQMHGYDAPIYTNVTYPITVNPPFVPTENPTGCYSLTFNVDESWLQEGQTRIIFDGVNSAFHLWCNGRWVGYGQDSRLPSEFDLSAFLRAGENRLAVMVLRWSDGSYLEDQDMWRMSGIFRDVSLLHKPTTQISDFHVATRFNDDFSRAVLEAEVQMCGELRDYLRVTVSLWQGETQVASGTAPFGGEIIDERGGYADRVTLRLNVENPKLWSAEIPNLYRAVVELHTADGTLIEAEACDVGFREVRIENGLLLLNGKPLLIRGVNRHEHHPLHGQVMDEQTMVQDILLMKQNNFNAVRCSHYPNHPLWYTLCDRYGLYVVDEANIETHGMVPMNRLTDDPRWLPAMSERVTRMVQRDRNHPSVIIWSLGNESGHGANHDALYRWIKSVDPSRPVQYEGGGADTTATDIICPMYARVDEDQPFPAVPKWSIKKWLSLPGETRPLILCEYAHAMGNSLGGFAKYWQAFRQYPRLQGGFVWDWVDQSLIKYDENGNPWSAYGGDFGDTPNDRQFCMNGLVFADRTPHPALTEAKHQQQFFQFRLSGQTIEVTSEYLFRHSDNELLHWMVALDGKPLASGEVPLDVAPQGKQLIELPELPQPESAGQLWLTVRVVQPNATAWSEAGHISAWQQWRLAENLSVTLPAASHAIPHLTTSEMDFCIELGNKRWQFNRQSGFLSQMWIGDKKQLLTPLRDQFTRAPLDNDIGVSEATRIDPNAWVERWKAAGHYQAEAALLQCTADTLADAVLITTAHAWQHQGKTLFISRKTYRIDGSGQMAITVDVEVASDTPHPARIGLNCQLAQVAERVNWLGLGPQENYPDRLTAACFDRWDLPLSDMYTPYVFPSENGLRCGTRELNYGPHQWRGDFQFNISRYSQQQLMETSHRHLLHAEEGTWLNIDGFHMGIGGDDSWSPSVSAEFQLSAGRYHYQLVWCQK
Description: β-Galactosidase (E. coli) inhibition. It counts as biochemical. The method, then:
as §1
(§5) Glycosidase assays were accomplished using the methodology reported by Bols and co-workers[30]. Each set of experiments is prepared in PS cuvettes using 0.1 M phosphate buffer (pH 6.8) and the corresponding o- or p-nitrophenyl glycopyranosides as substrates. Reactions were monitored at 25 °C by following the formation of the corresponding nitrophenolates at 400 nm (glucosidases and α-galactosidase) or 420 nm (β-galactosidases) over a time of 125 s.
(§6) Assessment of the inhibitory capacity against glycosidases was accomplished using the methodology reported by Bols and co-workers[30]. p-Nitrophenyl glycosides (o- for β-galactosidases) were used as model substrates, and the release of the corresponding p-nitrophenolates at pH 6.8 was monitored spectrophotometrically (λmax = 400 or 420 nm for p- or o-nitrophenolates, respectively).

In data set [2] the target is T3, β-galactosidase (Aspergillus Oryzae) (Aspergillus oryzae, UniProt Q2UCU3).
T3 construct: purchased
T3 sequence (Q2UCU3 19-1005): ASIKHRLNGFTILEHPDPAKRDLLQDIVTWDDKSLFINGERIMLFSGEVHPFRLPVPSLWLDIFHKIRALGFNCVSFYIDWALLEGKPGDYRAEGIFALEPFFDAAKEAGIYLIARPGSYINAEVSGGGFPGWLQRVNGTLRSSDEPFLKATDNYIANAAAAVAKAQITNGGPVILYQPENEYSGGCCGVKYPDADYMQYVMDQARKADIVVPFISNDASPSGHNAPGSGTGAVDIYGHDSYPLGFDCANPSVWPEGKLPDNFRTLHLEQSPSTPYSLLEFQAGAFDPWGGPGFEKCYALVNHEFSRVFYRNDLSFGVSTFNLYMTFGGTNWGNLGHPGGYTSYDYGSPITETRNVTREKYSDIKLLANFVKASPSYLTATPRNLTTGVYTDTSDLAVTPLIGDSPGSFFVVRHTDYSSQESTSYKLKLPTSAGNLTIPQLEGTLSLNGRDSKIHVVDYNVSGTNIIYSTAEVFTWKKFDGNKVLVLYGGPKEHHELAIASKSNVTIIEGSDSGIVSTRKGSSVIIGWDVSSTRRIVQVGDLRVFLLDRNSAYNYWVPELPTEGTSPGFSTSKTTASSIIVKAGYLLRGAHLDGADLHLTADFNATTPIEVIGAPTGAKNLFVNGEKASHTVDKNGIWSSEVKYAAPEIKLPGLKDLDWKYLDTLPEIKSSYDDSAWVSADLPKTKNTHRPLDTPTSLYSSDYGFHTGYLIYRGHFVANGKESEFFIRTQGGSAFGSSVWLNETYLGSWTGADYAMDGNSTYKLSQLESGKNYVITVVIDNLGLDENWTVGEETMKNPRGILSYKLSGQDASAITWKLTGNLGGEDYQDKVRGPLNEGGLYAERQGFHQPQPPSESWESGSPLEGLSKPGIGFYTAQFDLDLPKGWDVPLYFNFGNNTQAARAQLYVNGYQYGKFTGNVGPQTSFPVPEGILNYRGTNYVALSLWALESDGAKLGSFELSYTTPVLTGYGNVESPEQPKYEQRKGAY
The data set can be described thus: β-Galactosidase (A. oryzae) inhibition. It counts as biochemical. The procedure: as §1, §5, §6

Data set [3] addresses T4, α-galactosidase (green coffee beans) (Coffea arabica, UniProt Q42656).
T4 construct: purchased; host or cells: green coffee beans
The data set can be described thus: α-Galactosidase inhibition. It counts as biochemical. The method, then: as §1, with “Enzymes” for “For both families of enzymes used herein (glycosidases and cholinesterases), stock solutions of the inhibitors were prepared in DMSO; DMSO content was kept at 5% (V/V) for glycosidases and 1.25% (V/V) for cholinesterases. Enzymes”
Glycosidase assays were accomplished using the methodology reported by Bols and co-workers[30]. Each set of experiments is prepared in PS cuvettes using 0.1 M phosphate buffer (pH 6.8) and the corresponding o- or p-nitrophenyl glycopyranosides as substrates.
as §6

In data set [4] the target is AChE (Electrophorus electricus) (Electrophorus electricus, UniProt O42275). The data set can be described thus: AChE inhibition, Ellman's assay. It counts as biochemical. The following applies: Electrophorus electricus, pH 8.0; read-out: IC50 AChE. The procedure:
as §1, §2, §3, §4
(In general: In Ellman's method for cholinesterases, released thiocholine reacts with DTNB.)

The test system of data set [5] is BJ-hTERT human fibroblasts. The data set can be described thus: Antiproliferative SRB assay, BJ-hTERT. It counts as cell-based. The following applies: Fibroblast, 48 h, non-tumour fibroblasts.
Description: We selected the human neuroblastoma cell line SH-SY5Y and the fibroblast cell line BJ-hTERT to evaluate the antiproliferative activity of the compounds. The tests were performed in 96-well plates using the SRB assay[32] with the following specifications. Cell seeding densities were 5000 cells/well for SH-SY5Y and 7000 cells/well for BJ-hTERT. Drug incubation times were 48 h. The optical density of each well was measured at 530 (primary) and 620 (secondary) nm.
To analyse the potential cytotoxicity of title compounds, their antiproliferative activity was measured.
The test system of another data set is β-glucosidase (almonds). Description: β-Glucosidase inhibition (p-nitrophenyl glycoside substrate). It counts as biochemical. Particulars: for Mode of inhibition β-Glucosidase: Cornish–Bowden method; for IC50: almond enzyme, pH 6.8, 25 °C; for Ki: binding to free enzyme, read-out: Kia β-Glucosidase. The procedure:
as §1, §5, §3, §6

Data set [6] deals with T5, α-glucosidase (Saccharomyces cerevisiae) (Saccharomyces cerevisiae, UniProt P53341).
T5 construct: purchased
T5 sequence (P53341 whole entry): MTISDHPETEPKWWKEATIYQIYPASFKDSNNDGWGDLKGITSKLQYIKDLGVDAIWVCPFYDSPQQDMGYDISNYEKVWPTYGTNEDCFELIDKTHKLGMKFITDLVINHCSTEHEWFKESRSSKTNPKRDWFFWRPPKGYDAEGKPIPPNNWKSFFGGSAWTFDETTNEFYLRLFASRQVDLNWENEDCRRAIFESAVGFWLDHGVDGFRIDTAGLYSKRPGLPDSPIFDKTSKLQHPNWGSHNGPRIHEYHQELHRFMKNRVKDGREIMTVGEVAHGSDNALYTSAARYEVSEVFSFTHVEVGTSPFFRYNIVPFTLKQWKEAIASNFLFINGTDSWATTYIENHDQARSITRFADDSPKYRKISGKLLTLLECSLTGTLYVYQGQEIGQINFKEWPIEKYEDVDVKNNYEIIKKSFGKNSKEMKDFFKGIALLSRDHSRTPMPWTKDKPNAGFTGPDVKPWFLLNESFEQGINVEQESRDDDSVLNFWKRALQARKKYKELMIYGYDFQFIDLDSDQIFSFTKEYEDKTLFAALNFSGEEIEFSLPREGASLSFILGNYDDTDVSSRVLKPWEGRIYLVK
The data set can be described thus: α-Glucosidase inhibition (p-nitrophenyl glycoside substrate). It counts as biochemical. The procedure:
as §1, §5
(Dixon plot) and [S]/v vs. [I]. For the calculation of kinetic parameters (KM, Vmax) a nonlinear regression analysis (least squares fit, GraphPad Prism 8.01) was used. Data are expressed as the mean ± SD.
as §6

For data set [7] the following is noted: cited from earlier work.

T1 sequence (P81908 whole entry): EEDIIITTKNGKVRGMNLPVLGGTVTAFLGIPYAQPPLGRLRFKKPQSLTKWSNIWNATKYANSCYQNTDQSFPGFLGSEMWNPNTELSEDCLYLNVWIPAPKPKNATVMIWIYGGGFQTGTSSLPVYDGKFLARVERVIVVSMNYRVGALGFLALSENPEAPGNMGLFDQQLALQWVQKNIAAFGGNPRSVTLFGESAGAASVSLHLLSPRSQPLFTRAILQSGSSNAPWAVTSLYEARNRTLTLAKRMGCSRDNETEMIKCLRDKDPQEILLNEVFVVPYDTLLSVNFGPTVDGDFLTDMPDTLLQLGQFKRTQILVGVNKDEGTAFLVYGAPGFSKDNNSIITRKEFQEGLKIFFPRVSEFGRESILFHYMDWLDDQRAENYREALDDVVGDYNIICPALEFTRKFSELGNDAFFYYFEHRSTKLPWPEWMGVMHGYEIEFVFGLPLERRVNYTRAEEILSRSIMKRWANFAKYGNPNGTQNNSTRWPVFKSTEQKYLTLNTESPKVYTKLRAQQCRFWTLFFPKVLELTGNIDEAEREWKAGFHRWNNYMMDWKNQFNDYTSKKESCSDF
T4 sequence (Q42656 16-378): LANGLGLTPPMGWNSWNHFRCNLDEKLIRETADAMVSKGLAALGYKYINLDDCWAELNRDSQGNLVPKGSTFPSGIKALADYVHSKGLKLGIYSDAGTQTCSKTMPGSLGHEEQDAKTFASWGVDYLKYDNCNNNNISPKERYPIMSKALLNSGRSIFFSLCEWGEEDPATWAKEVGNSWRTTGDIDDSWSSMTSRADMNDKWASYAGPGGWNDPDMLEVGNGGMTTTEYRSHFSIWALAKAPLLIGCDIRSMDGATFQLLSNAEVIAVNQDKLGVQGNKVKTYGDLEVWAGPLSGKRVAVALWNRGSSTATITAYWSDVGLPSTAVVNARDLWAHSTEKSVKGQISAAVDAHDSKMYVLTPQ
Chain of AChE (Electrophorus electricus) (O42275 24-633): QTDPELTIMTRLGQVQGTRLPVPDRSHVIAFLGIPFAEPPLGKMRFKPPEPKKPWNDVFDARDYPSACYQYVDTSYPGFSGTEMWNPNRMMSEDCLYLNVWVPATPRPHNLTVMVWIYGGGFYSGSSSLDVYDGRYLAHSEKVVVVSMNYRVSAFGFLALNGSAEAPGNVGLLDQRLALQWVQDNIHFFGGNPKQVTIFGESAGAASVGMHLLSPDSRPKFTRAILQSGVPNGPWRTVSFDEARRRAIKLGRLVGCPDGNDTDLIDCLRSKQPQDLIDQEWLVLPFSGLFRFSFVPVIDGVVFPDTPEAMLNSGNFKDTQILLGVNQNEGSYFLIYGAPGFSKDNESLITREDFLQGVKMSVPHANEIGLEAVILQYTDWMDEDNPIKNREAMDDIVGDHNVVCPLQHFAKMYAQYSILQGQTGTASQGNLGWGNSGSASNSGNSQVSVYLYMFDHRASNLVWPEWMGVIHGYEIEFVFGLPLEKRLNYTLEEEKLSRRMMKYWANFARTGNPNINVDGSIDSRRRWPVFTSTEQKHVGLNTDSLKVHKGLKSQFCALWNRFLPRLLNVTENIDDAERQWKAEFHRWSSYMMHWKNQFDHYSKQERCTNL

The term IC50 denotes the point on the concentration scale where inhibition reaches its midpoint. Broadly, the GI50 is the concentration giving 50% growth inhibition. Take `OC[C@@H]1[C@@H](O)[C@H](O)[C@@H](O)CN1CCCCCCOCCc1ccc(O)c(O)c1` [Compound 11d]: the IC50 on BuChE (equine serum) is 76 µM; in data set [1] it was more than 100 µM; in data set [2] it was more than 100 µM; in data set [3], more than 100 µM; in data set [4] it was more than 100 µM; at β-glucosidase (almonds) it was 15 µM. In [6], this compound gave an IC50 of more than 100 µM. In addition, the 50% growth inhibitory concentration (GI50) in data set [5] was found to be 39 ± 5 µM. Further, the “Mode of inhibition β-Glucosidase” value in the data set on β-glucosidase (almonds) is “Competitive”. Further, the Ki on β-glucosidase (almonds) turned out to be 11 µM.

Broadly, the pKa is the negative logarithm of the acid dissociation constant. Consider `CCCCCCCCCN1C[C@H](O)[C@@H](O)[C@H](O)[C@H]1CO` [N-nonyl-DNJ], for which the pKa in [7] is given as 6.7.

In the case of `CCCCN1C[C@H](O)[C@@H](O)[C@H](O)[C@H]1CO` [N-butyl-DNJ, N-butyl-1-deoxynojirimycin], the pKa in [7] is on record as 7.1.

Consider `COc1ccc(CCOCCCCCN2C[C@H](O)[C@@H](O)[C@H](O)[C@H]2CO)cc1` [Compound 12c], for which the IC50 at BuChE (equine serum) was more than 100 µM; in data set [1] it was more than 100 µM; in [2], more than 100 µM; in data set [3] it was more than 100 µM; in data set [4] it was more than 100 µM; against β-glucosidase (almonds), 25 µM. Further, the IC50 in data set [6] was more than 100 µM. Besides, the “Mode of inhibition β-Glucosidase” value with β-glucosidase (almonds) is given as “Competitive”. Besides, the Ki at β-glucosidase (almonds) was 14 ± 6 µM.

(Values after article PMC7717699, “Tuning the activity of iminosugars: novel N-alkylated deoxynojirimycin derivatives as strong BuChE inhibitors” (Journal of Enzyme Inhibition and Medicinal Chemistry, 2020).)
